Several values for one entry are separate records, joined by “and”; a condition that tells them apart may be missing. Equal entries are not always repeated. Where two headings read alike, the source gives them in different places.
Columns and labels:
[1] = system: lethal effects caused by adrenaline; experiment: adrenolytic activity in vivo on the rat: reduction of lethal effects caused by adrenaline; settings: read-out: ID50 (dose reducing by 50% the lethal effects caused by adrenaline)
Protocol: (§1) The adrenolytic activity of the compounds of the invention was also determined in vivo on the rat in comparison with dihydroergotamine and nicergoline. Table 2 reports the doses in mg/kg (ID50) able to reduce by 50% the lethal effects caused by adrenaline after oral (os) and intravenous (i.v.) administration of these compounds as compared with dihydroergotamine and with nicergoline, i.e., 1,6-dimethyl-8 -(5'-bromonicotinoyloxymethyl)-10 -methoxyergoline (Br. J. Pharmac, 34, 700, 1968).

[2] = system: adrenalin; experiment: submaximal inhibiting dosage protecting 80% of rats against adrenalin injected 8 hours after administration; format: in vivo; settings: Rattus norvegicus, po, read-out: ID (submaximal inhibiting dosage which protects 80% of the tested animals)
Protocol: This greater stability was confirmed by the determination of the submaximal inhibiting dosage which protects 80% of the tested animals (rats) against a single dose of 200 mg/Kg of body weight of adrenalin injected 8 hours after administration of the tested compounds according to the invention.

[3] = system: isolated guinea pig seminal vescicle; experiment: inhibition of the spasmogen effect caused by adrenaline on isolated guinea pig seminal vescicle (adrenolytic activity in vitro); design: unit: μg/ml; settings: isolated guinea pig seminal vescicle in physiological solution
Protocol: The compounds of the present invention have a high and prolonged adrenolytic activity and a low toxicity and are therefore useful in therapy. This adrenolytic activity was tested on several of the present compounds in vitro in comparison with dihydroergotamine on isolated guinea pig seminal vescicle suspended in a physiological solution.
Table 1 reports the values of concentrations, in μg/ml., which are able to produce a 50% inhibition (IC50) of the spasmogen effect caused by adrenaline.

[4] = acute toxicity LD50 in rats; settings: rat, in vivo
[5] = system: hypertensive rat; experiment: hypotensive activity on the hypertensive rat; format: in vivo; settings: po, read-out: Hypotensive Activity, Active Dose (dose causing a pressure drop of about 30-40 mmHg)
Protocol: The hypotensive activity was tested on the hypertensive rat; the reported data being the dose, expressed in mg/kg per os, which causes a pressure drop of about 30-40 mmHg.

[6] = Arcamone et al. Bioch. Pharmac. 21, 2205, 1972; cited from earlier work
[7] = analgesic activity, writhing test; format: in vivo; settings: for Analgesic Activity, Writhing, relative to D-propoxyphene: D-propoxyphene assigned the value of 1; for Analgesic Activity, Writhing, relative to morphine: morphine assigned the value of 1
Protocol: (§2) The analgesic activity was evaluated by means of the hot plate test and the writhing test, the data being given in comparison with morphine and D-propoxyphene.
(§3) In the hot plate and writhing tests, the comparison compounds morphine and D-propoxyphene have been arbitrarily assigned the value of 1. Thus, in the hot plate test, the compound 1,6-dimethyl-8β-(2-pyrimidino-aminomethyl)-10α-ergoline has the same activity as both morphine and D-propoxyphene, while in the writhing test that compound has 1/2 the activity of morphine and 5 times the activity of D-propoxyphene.

[8] = system: lethal adrenaline dose; experiment: percentage of animals protected against lethal adrenaline dose, hours after administration; format: in vivo, rat
Protocol: as §1
Some of the compounds reported in Table 2 have a long lasting effect of up to 24 hours as shown by the data contained in Table 3.
Percentage of animals protected against lethal adrenaline dose

[9] = analgesic activity, hot plate test; format: in vivo
Protocol: as §2, §3

[10] = 0.5 mg/Kg per os, 1 hour after administration
[11] = 0.5 mg/Kg per os, 2 hours after administration
[12] = 0.5 mg/Kg per os, 4 hours after administration
[13] = 0.5 mg/Kg per os, 8 hours after administration
[14] = 0.1 mg/Kg per os, 1 hour after administration
[15] = 0.1 mg/Kg per os, 2 hours after administration
[16] = 0.5 mg/Kg per os, 0.5 hours after administration

| SMILES | ED50 ([1]; po, os) [mg/kg] | ED80 ([2]; 8 h) [mg/kg] | ED50 ([1]; iv) [mg/kg] | TC50 (concentration producing 50% inhibition (IC50) of the spasmogen effect caused by adrenaline) [3] [μc/ml] | LD50 ([4]; iv) [mg/kg] | LD50 ([4]; po, os) [mg/kg] | other results |
| --- | --- | --- | --- | --- | --- | --- | --- |
| CN1CC(CNc2ncc(Cl)cn2)CC2c3cccc4c3c(cn4C)CC21 (stereo not drawn) [1,6-dimethyl-8β-(5-chloro-2-pyrimidino-aminomethyl)-10α -ergoline] | 0.14 | 1 |  |  |  |  |  |
| CN1C[C@H](C(=O)N[C@]2(C)O[C@@]3(O)[C@@H]4CCCN4C(=O)[C@H](Cc4ccccc4)N3C2=O)C[C@@H]2c3cccc4[nH]cc(c34)C[C@H]21 [dihydroergotamine, reference compound] | 15 | > 20 | 0.08 | 0.015 |  |  |  |
| CN1CC(CNc2ncc(C#N)cn2)CC2c3cccc4c3c(cn4C)CC21 (stereo not drawn) [1,6-dimethyl-8β-(5-cyano-2-pyrimidino-aminomethyl)-10α -ergoline] | 0.05 |  | 0.05 | 0.005 | 25 | 35 | ED (30-40 mmHg pressure drop) ([5]; Rattus norvegicus): 2.5 to 5 mg/kg |
| COC12CC(CNc3ncc(C)cn3)CN(C)C1Cc1cn(C)c3cccc2c13 (stereo not drawn) [1,6-dimethyl-8β-(5-methyl-2-pyrimidino-aminomethyl)-10α -methoxyergoline] | 0.1 |  | 0.1 | 0.001 | 18 |  |  |
| CO[C@]12C[C@@H](COC(=O)c3cncc(Br)c3)CN(C)[C@@H]1Cc1cn(C)c3cccc2c13 [nicergoline, 1,6-dimethyl-8β-(5'-bromonicotinoyloxymethyl) 10α-methoxyergoline, reference compound] | 7 |  | 0.024 |  |  |  | metabolism in the presence of blood in vitro [6]: rapidly metabolized; ED80 ([2]; peros in rats after 8 hours, single dose of 200 mg/Kg adrenalin): > 20 mg/kg |
| CN1CC(CNc2ncc(N)cn2)CC2c3cccc4c3c(cn4C)CC21 (stereo not drawn) [1,6-dimethyl-8β-(5-amino-2-pyrimidino-aminomethyl)-10α-ergoline] | 0.5 | 1 | 0.18 |  | 18 | 140 |  |
| COC12CC(CNc3ncc(C#N)cn3)CN(C)C1Cc1cn(C)c3cccc2c13 (stereo not drawn) [1,6-dimethyl-8β -(5-cyano-2-pyrimidino-aminomethyl)-10α -methoxyergoline] | 0.2 | 0.5 | 0.015 | 0.0001 | 38 | 160 | Analgesic Activity, Writhing, relative to D-propoxyphene [7]: 1; Analgesic Activity, Writhing, relative to morphine [7]: 0.2; % survivors ([8]; 0.2 mg/Kg per os, 2 hours after administration): 100%; % survivors ([8]; 0.2 mg/Kg per os, 4 hours after administration): 90%; % survivors [8, 10]: 80%; % survivors [8, 11]: 90%; % survivors [8, 12]: 80%; % survivors [8, 13]: 80%; ED (30-40 mmHg pressure drop) ([5]; Rattus norvegicus): 1 to 2.5 mg/kg |
| COC12CC(CNc3ncc([N+](=O)[O-])cn3)CN(C)C1Cc1cn(C)c3cccc2c13 (stereo not drawn) [1,6-dimethyl-8β-(5-nitro-2-pyrimidino-aminomethyl)-10α -methoxyergoline] | < 0.1 |  | 0.2 | 0.001 | 28 | 200 | % survivors [8, 14]: 70%; % survivors [8, 15]: 80%; % survivors [8, 16]: 100%; % survivors [8, 11]: 100%; % survivors [8, 12]: 90%; % survivors [8, 13]: 40%; ED (30-40 mmHg pressure drop) ([5]; Rattus norvegicus): 1 to 2.5 mg/kg |
| CN1CC(CNc2ncc([N+](=O)[O-])cn2)CC2c3cccc4c3c(cn4C)CC21 (stereo not drawn) [1,6-dimethyl-8β-(5-nitro-2-pyrimidino-aminomethyl)-10α -ergoline] | 0.04 | 0.5 | 0.09 | 0.007 |  |  | % survivors ([8]; 0.1 mg/Kg per os, 0.5 hours after administration): 50%; % survivors [8, 14]: 90%; % survivors [8, 15]: 60%; % survivors ([8]; 0.1 mg/Kg per os, 4 hours after administration): 70%; % survivors ([8]; 0.1 mg/Kg per os, 8 hours after administration): 60%; % survivors ([8]; 0.1 mg/Kg per os, 16 hours after administration): 10%; % survivors [8, 16]: 100%; % survivors [8, 10]: 100%; % survivors [8, 11]: 100%; % survivors [8, 12]: 90%; % survivors [8, 13]: 80%; % survivors ([8]; 0.5 mg/Kg per os, 16 hours after administration): 30%; % survivors ([8]; 0.5 mg/Kg per os, 24 hours after administration): 20% |
| CN1CC(CNc2ncccn2)CC2c3cccc4c3c(cn4C)CC21 (stereo not drawn) [1,6-dimethyl-8β-(2-pyrimidino-aminomethyl)-10α -ergoline] |  |  |  |  |  |  | Analgesic Activity, Writhing, relative to D-propoxyphene [7]: 5; Analgesic Activity, Writhing, relative to morphine [7]: 0.5 and 1/2; ED (30-40 mmHg pressure drop) ([5]; hypertensive rat, per os): 5 to 10 mg/kg |
| COC12CC(CNc3ncccn3)CN(C)C1Cc1cn(C)c3cccc2c13 (stereo not drawn) [1,6-dimethyl-8β -(2-pyrimidino-aminomethyl)-10α -methoxyergoline] | 1 |  | 0.2 | 0.005 | 25 | 250 |  |
| Cc1cc(C)nc(NCC2CC3c4cccc5c4c(cn5C)CC3N(C)C2)n1 (stereo not drawn) [1,6-dimethyl-8β(4,6-dimethyl-2-pyrimidino-aminomethyl)-10α -ergoline] | 1.25 |  |  |  |  |  | % survivors ([8]; 2.5 mg/Kg per os, 1 hour after administration): 80%; % survivors ([8]; 2.5 mg/Kg per os, 2 hours after administration): 60%; % survivors ([8]; 2.5 mg/Kg per os, 4 hours after administration): 30%; % survivors ([8]; 5 mg/Kg per os, 1 hour after administration): 100%; % survivors ([8]; 5 mg/Kg per os, 2 hours after administration): 80%; % survivors ([8]; 5 mg/Kg per os, 4 hours after administration): 50%; % survivors ([8]; 5 mg/Kg per os, 8 hours after administration): 20%; % survivors ([8]; 10 mg/Kg per os, 1 hour after administration): 100%; % survivors ([8]; 10 mg/Kg per os, 2 hours after administration): 100%; % survivors ([8]; 10 mg/Kg per os, 4 hours after administration): 60% |
| Cc1cnc(NCC2CC3c4cccc5c4c(cn5C)CC3N(C)C2)nc1 (stereo not drawn) [1,6-dimethyl-8β-(5-methyl-2-pyrimidino-aminomethyl)-10 α-ergoline] | 0.1 |  | 0.15 |  | 35 | 140 | Analgesic Activity, Writhing, relative to D-propoxyphene [7]: 5; Analgesic Activity, Writhing, relative to morphine [7]: 0.5; Analgesic Activity, Hot plate, relative to D-propoxyphene ([9]; D-propoxyphene assigned the value of 1): 5; Analgesic Activity, Hot plate, relative to morphine ([9]; morphine assigned the value of 1): 1; ED (30-40 mmHg pressure drop) ([5]; hypertensive rat, per os): 5 to 10 mg/kg |
| COC12CC(CNc3ncc(Br)cn3)CN(C)C1Cc1cn(C)c3cccc2c13 (stereo not drawn) [1,6-dimethyl-8β -(5-bromo-2-pyrimidino-aminomethyl)-10α -methoxyergoline] | 0.32 |  | 0.08 | 0.005 | 50 | 230 |  |

Reference: patent US3957785A, “Bβ-Pyrimidino-aminomethyl-10α-ergoline and 10α-methoxyergoline derivatives” (priority 1971, dated 1976)
